Test results: article PMC5918173, “Characterization of Transglutaminase 2 activity inhibitors in monocytes in vitro and their effect in a mouse model for multiple sclerosis” (PLoS ONE, 2018)

What was measured:
[1] = proposed; reference not given; cited from earlier work
[2] = tested on: inflammatory mediator mRNA in spinal cord; assay: qPCR of inflammation-related genes in spinal cord of EAE mice; type: in vivo, mouse; conditions: normalized to GAPDH
Method: Total RNA from snap frozen spinal cord (pooled cervical, thoracic and lumbar region) was isolated using Trizol (Invitrogen) according to the manufacturer’s protocol. RNA concentration and purity was determined with a NanoDrop 2000 spectrophotometer (Thermo Fisher Scientific). Purity was accepted with a 260/230 nm absorbance ratio of 2.00–2.20 and a 260/280 ratio of 1.90.-2.00. For reverse transcription into cDNA, 1 μg of RNA was used with the High-Capacity cDNA Reverse Transcription kit (Life Technologies), using 50 pmol oligo-dT16 primers, according to the manufacturer’s instructions. For quantitative real-time PCR (qPCR), Power SYBR Green Master Mix (Applied Biosystems) was used according to manufacturer’s protocol. Intron-spanning primers (Table 2) were designed with Primer-BLAST [29], purchased from Eurogentec and used at 3.75 pmol per 12.5 ng cDNA in each reaction. Subsequently, qPCR was performed according to the previously published MIQE guidelines. The qPCR reaction was performed in a total volume of 20 μl in MicroAmp Optical 96-well Reaction Plates on a StepOnePlus Real-Time PCR system (Applied Biosystems). The thermal cycling conditions were an initial 10 min at 95°C followed by 50 cycles of 15 s at 95°C and 1 min at 60°C. The reaction specificity was verified by a melt curve analysis. The relative expression level of the target genes was determined by the LinRegPCR software (http://www.hfrc.nl, downloads, applications, lin reg PCR, version 2017) using the following calculation N0 = Nq/ECq (N0 = target quantity, Nq = fluorescence threshold value, E = mean PCR efficiency per amplicon, Cq = threshold cycle. The obtained values were normalized to glyceraldehyde-3-phosphate-dehydrogenase expression (GAPDH).

O=C(NCC1CC(Br)=NO1)C1CCCN1C(=O)OCc1cnc2ccccc2c1 (stereo not drawn) [ERW1041E, 2-[(3-Bromo-4,5-dihydro-isoxazol-5-ylmethyl)-carbamoyl]-pyrrolidine-1—carboxylic acid quinolin-3-ylmethyl ester]
inhibitory in vivo half-life [1]: 12 h
IL-1ra mRNA level in spinal cord versus vehicle ([2]; Fig 7a): not significantly changed
IL-1β mRNA level in spinal cord versus vehicle ([2]; Fig 7b): not significantly changed
IFNγ mRNA level in spinal cord versus vehicle ([2]; Fig 7c): not significantly changed
iNOS mRNA level in spinal cord versus vehicle ([2]; Fig 7e): slightly but not significantly enhanced
TNFα mRNA level in spinal cord versus vehicle ([2]; Fig 7d): slightly but not significantly enhanced
